These results are taken from patent publication US5948931A (priority 1997, dated 1999).

Data set [1] is classed as physicochemical.
Data set [2] in a line: Stability of DCHA+ salts 3 heated in different solvents (31P NMR). Format: physicochemical. Conditions: for degraded at 3.5 h: water, read-out: conversion to phosphate. The method, then: Stability of DCHA^+ Salts 3 Heated in Different Solvents. 40 mg 3 (E or Z) was heated in 5 ml of alcohol mixture, H2 O or acetonitrile. Reaction progress was monitored by ^31 P NMR spectroscopy.

The nature of data set [3]: pH dependence of the stability of DCHA+ salts 3 in D2O (31P NMR). The format is physicochemical. To be noted: 22° C.; for stability in D2O: 24 h, pH 2-8; for remaining at 24 h / Z isomer formed from E-3 (% int, 31P NMR) / F, fragmentation product (HO)2P(O)OH from E-3 (% int) / H, hydrolysis product 4 from E-3 (% int) / E isomer formed from Z-3 (% int, 31P NMR) / F, fragmentation product (HO)2P(O)CN from Z-3 (% int) / H, hydrolysis product 4 from Z-3 (% int): t = 24 h. The method, then: pH Dependence of the Stability of DCHA^+ Salts 3. These experiments were carried out in 5 mm glass NMR tubes in D2 O at 22° C., concentration of 3 0.1% (w/v).

The nature of data set [4]: Alkaline hydrolysis of E-3 and Z-3 to salts 4. The format is physicochemical. Conditions: for time to complete hydrolysis: NaOH in D2O; for time of alkaline hydrolysis: aq. NaOH, 25° C., pH 13-14. The method, then:
In an additional aspect of the present invention, C-alkyl esters of 3 can be stable under physiological conditions but can be reactive under more vigorous conditions. The stability of the parent Troika acids in H2 O were analyzed. Alkaline hydrolysis by methods known by those skilled in the art of E-3 and Z-3 (preferably, aq. NaOH, at a temperature of 25° C., at pH 13-14) can give the corresponding sodium salts E-4 and Z-4, the Z ester reacting much more rapidly (1 h vs. 70 h for E-3). Both salts 4 can be quite stable at high pH, typically, at pH values greater than 10, and room temperature, but at about pH 6 facile stereospecific fragmentations can be observed. […] The transformation of anti α-keto acid oximes to nitriles in aqueous solution at 40-100°C. is well known to those skilled in the art, but the corresponding process giving a phosphononitrile from a phosphonate α-oxime, observed with Z-4, was unexpected. Furthermore, an additional unexpected result in accordance with the present invention, was the finding that simple removal of the carboxy alkyl group of E-3 can create a reagent (E-4) capable of phosphorylation under mild aqueous conditions.
Synthesis of E4 & 5. 10 N NaOH ([…]) was added to E-3 (10 mg) in D2 O (0.4 ml) in an NMR tube, raising the pH to ~13. Hydrolysis was monitored by ^1 H and ^31 P NMR at room temperature. The reaction was complete in 3 d, giving a product identified by ^13 C and ^31 P NMR as E-4. ^13 C NMR (D2 O): δ (ppm) 161.8 (d, ^1 JPC =176 Hz, P--C=N), 175.4 (d, ^2 JPC =21 Hz, C=O); ^31 P NMR (D2 O, pH=13-14): δ (ppm) 2.8.
Acidification of Z-4 & 6. An analogous procedure for E-4 was carried out with the Z-3 isomer. Hydrolysis was complete within 1 h, yielding Z-4. […] (D2 O, pH=13-14): δ (ppm) 161.1 (d, ^1 JPC =127 Hz, P--C=N), […], 171.9 (d, ^2 JPC =17 Hz, C=O); ^31 P NMR (D2 O, pH=13-14): δ (ppm), 2.0.

The conditions of data set [5]: for fragmentation product: about pH 6; for stability at high pH: pH greater than 10, room temperature.
The nature of data set [6]: Stability of C-esters of Troika acid (E-2) in water. The format is physicochemical.
Data set [7] in a line: Photochemical activation (UV irradiation) of ONBCE-TA in Tris buffer. Format: physicochemical. The method, then: Photochemical Activation Example. 5 mg of o-Nitrobenzyl (E)-dihydroxyphosphinyl)(hydroxyimino)acetate (ONBCE-TA) (prepared analogously to PNHDA) dissolved in 0.5 ml of 100 mM Tris buffer (pH 6.9) was irradiated in a Rayonet apparatus for 17 hr at 39° C. Phosphoric acid (the product from phosphorylation of solvent water) was obtained, yield 11%. The phosphorylation was not noticed in the absence of UV irradiation.

Setting [8] is: Exp 2, EtOH:i-PrOH 1:1, 79° C., 30 h.
Setting [9] is: Exp 3, EtOH:t-BuOH 1:1, 79° C., 28 h.
Where [10] appears, read: Exp 5, H2O (pH 6-7), 82-84° C., 4.0 h.
The mark [11] stands for this setting: Exp 8, H2O (pH 6-7), 82-84° C., 5.7 h.

“And” between values parts separate entries of the source, which are not always exact repeats. Equal values may be shown once. “Also recorded” adds a separate entry of the source. Where a name gives a salt, the structure may show the parent alone. Read-outs that look alike come from different tables or passages of the source. Bounds are passed on as bounds.

Consider `COP(=O)(O)/C(=N/O)C(=O)O` [E-13, Bis-DCHA^+ Salt (E-13) of (E)-(Hydroxyimino)-(hydroxymethoxyphosphinyl)acetic Acid], for which the “ethyl and t-butyl methyl phosphate, total” value in data set [1] (1:1 EtOH-t-BuOH) is reported as 24%. The phosphorylation products in data set [1] (heated in acetonitrile or EtOH) is 16-19%.

For the compound `COC(=O)/C(=N\O)P(=O)(O)O` [E-3, Dicyclohexylammonium E-Methyl (Hydroxyimino)phosphonoacetate], the stability on heating result in data set [2] (5 h in 1:1 MeOH:i-PrOH, 72° C.) is listed as “unchanged”. Besides, the “Et phosphate and i-Pr phosphate formed” value in data set [2] (30 h in 1:1 EtOH:i-PrOH, 79° C.) worked out at 84%. The “Et-phosphate (yield, %)” value in data set [2] (setting [8]) stood at 48.3%; in data set [2] (setting [9]), 33.9%. Further, the entries for the “Z-isomer (yield, %)” value in data set [2] (setting [8]) and in data set [2] (setting [9]) were 2.5% and 29.4%, respectively. In addition, the “i-Pr-phosphate (yield, %)” value in data set [2] (setting [8]) turned out to be 35.8%. In addition, the “phosphate (yield, %)” value is on record as 8.5% in data set [2] (setting [8]); 9.4% in data set [2] (setting [9]); 100% in data set [2] (Exp 4, H2O (pH 4.0), 82-84° C., 3.5 h); 87.7% in data set [2] (setting [10]); 0.6% in data set [2] (Exp 6, MeCN, 81° C., 3.5 h). Also, the “s.m. (%)” value in data set [2] (setting [8]) stood at 4.9%; in data set [2] (setting [9]), 10.4%; in data set [2] (setting [10]), 12.3%; in data set [2] (Exp 6, MeCN, 81° C., 3.5 h), 16.4%. Further, the “t-Bu-phosphate (yield, %)” value in data set [2] (setting [9]) is reported as 16.9%. Also, in data set [2] (Exp 6, MeCN, 81° C., 3.5 h), the “phosphononitrile (yield, %)” value amounted to 2.1%. Moreover, the “polyphosphates (yield, %)” value in data set [2] (Exp 6, MeCN, 81° C., 3.5 h) is on record as 80.9%. Besides, the polyphosphate products in data set [2] (refluxing acetonitrile, several hours) came to 81%. Moreover, the degraded at 3.5 h in data set [2] (H2O, pH 4.0, 3.5 h, 82-84° C.) turned out to be 100%; in data set [2] (H2O, pH ~6.5, 3.5 h, 82-84° C.), 88%. For the same compound, the “stability in D2O” value in data set [3] is “stable”. Further, the “E isomer (% int, 31P NMR)” value came out at 100% in data set [3] (t = 0, pH 2.0, D2O); 100% in data set [3] (t = 0, pH 4.0, D2O); 100% in data set [3] (t = 0, pH 6.2, D2O); 100% in data set [3] (t = 0, pH 8.1, D2O); 100% in data set [3] (t = 0, pH 10.4, D2O); 100% in data set [3] (t = 0, pH 11.0, D2O). Also, the remaining at 24 h was determined as 100% in data set [3] (pH 2.0, D2O, read-out: E isomer (% int, 31P NMR)); 100% in data set [3] (pH 4.0, D2O, read-out: E isomer (% int, 31P NMR)); 91.1% in data set [3] (pH 6.2, D2O, read-out: E isomer (% int, 31P NMR)); 91.3% in data set [3] (pH 8.1, D2O, read-out: E isomer (% int, 31P NMR)); 87.2% in data set [3] (pH 10.4, D2O, read-out: E isomer (% int, 31P NMR)); 76.2% in data set [3] (pH 11.0, D2O, read-out: E isomer (% int, 31P NMR)). Moreover, the “Z isomer formed from E-3 (% int, 31P NMR)” value stood at 8.9% in data set [3] (pH 6.2, D2O); 8.7% in data set [3] (pH 8.1, D2O); 3.0% in data set [3] (pH 10.4, D2O); 1.8% in data set [3] (pH 11.0, D2O). The “F, fragmentation product (HO)2P(O)OH from E-3 (% int)” value is given as 1.2% in data set [3] (pH 10.4, D2O) and 3.6% in data set [3] (pH 11.0, D2O). Further, the “H, hydrolysis product 4 from E-3 (% int)” value came to 6.9% in data set [3] (pH 10.4, D2O) and 18.4% in data set [3] (pH 11.0, D2O). Also, the “time to complete hydrolysis” value in data set [4] (pH ~13, room temperature) turned out to be 3 days. Besides, the “time of alkaline hydrolysis” value in data set [4] is on record as 70 h.

The half-life is how long it takes for the measured level to halve. A high value points to slow loss. Turning to `O=C(O)/C(=N\O)P(=O)(O)O` [E-4], the half-life in “physchem” (d2o, pH 5.7) was below 10 min. For the same compound, the half-life in the data set “physchem” (water, pH 6) is below 10 min. Also, in data set [5], the fragmentation product entry is listed as “exclusively orthophosphoric acid” and the “stability at high pH” value was “quite stable”.

As to `O=C(O)/C(=N/O)P(=O)(O)O` [Z-4], the half-life in “physchem” (d2o, pH 6) was around 5 min. In data set [5], the fragmentation product result is reported as “cyanophosphonic acid” and the “stability at high pH” value was “quite stable”.

As to `COC(=O)/C(=N\O)P(=O)(O)O` [E-2, methyl α-(hydroxyimino)phosphonoacetic acid], in data set [2] (1 d in refluxing AN, DCHA+ salt), the thermal stability entry is “decomposed to polyphosphates”. The stability in water result is “stable” in data set [6] (H2O at physiological pH); “stable at both acidic and neutral pH; also recorded: stable in water at room temperature” in data set [6] (neutral and acidic pH, room temperature).

For the compound `COC(=O)/C(=N/O)P(=O)(O)O` [Z-3, Bis(dicyclohexylammonium) Z-Methyl (Hydroxyimino)phosphonoacetate], the stability on heating entry in data set [2] (4 h in 1:1 EtOH:i-PrOH, 79° C.) is given as “stable”. In addition, in data set [2] (setting [11]), the “E-isomer (yield, %)” value was 4.7% and 5%. Moreover, the “phosphate (yield, %)” value in data set [2] (setting [11]) is 27.8% and 28%. Also, in data set [2] (setting [11]), the “phosphononitrile (yield, %)” value is 13.4% and 13%. Further, the “s.m. (%)” value in data set [2] (setting [11]) is on record as 54.1%. For the same compound, the conversion in data set [2] (H2O, 5.7 h, 82-84° C.) stood at 46%. The “stability in D2O” value in data set [3] is “stable”. Moreover, the “Z isomer (% int, 31P NMR)” value in data set [3] (t = 0, pH 2.0, D2O) stood at 100%; in data set [3] (t = 0, pH 4.2, D2O), 100%; in data set [3] (t = 0, pH 6.7, D2O), 100%; in data set [3] (t = 0, pH 8.3, D2O) it was 100%; in data set [3] (t = 0, pH 10.4, D2O), 100%; in data set [3] (t = 0, pH 11.0, D2O), 100%. In addition, the remaining at 24 h in data set [3] (pH 2.0, D2O, read-out: Z isomer (% int, 31P NMR)) was determined as 100%; in data set [3] (pH 4.2, D2O, read-out: Z isomer (% int, 31P NMR)) it was 100%; in data set [3] (pH 6.7, D2O, read-out: Z isomer (% int, 31P NMR)), 95%; in data set [3] (pH 8.3, D2O, read-out: Z isomer (% int, 31P NMR)), 92.6%; in data set [3] (pH 10.4, D2O, read-out: Z isomer (% int, 31P NMR)), 87.2%; in data set [3] (pH 11.0, D2O, read-out: Z isomer (% int, 31P NMR)), 76.3%. Moreover, the “E isomer formed from Z-3 (% int, 31P NMR)” value in data set [3] (pH 6.7, D2O) stood at 5.0%; in data set [3] (pH 8.3, D2O), 7.4%; in data set [3] (pH 10.4, D2O) it was 8.5%. In addition, the “F, fragmentation product (HO)2P(O)CN from Z-3 (% int)” value in data set [3] (pH 10.4, D2O) came to 1.7%; in data set [3] (pH 11.0, D2O), 9.2%. The “H, hydrolysis product 4 from Z-3 (% int)” value in data set [3] (pH 10.4, D2O) stood at 2.6%; in data set [3] (pH 11.0, D2O), 14.5%. In addition, the “time to complete hydrolysis” value in data set [4] (room temperature) is at most 0.042 days. Further, the “time of alkaline hydrolysis” value in data set [4] was found to be 1 h.

Turning to `O=C(OCc1ccccc1[N+](=O)[O-])/C(=N\O)P(=O)(O)O` [ONBCE-TA], in data set [7] (UV, 17 hr, 39° C., 100 mM Tris pH 6.9), the “phosphoric acid formed (yield)” value is 11%. For the same compound, the phosphorylation without irradiation entry in data set [7] (absence of UV irradiation) was “not noticed”.
